#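 GI50 = concentration required for 50% inhibition of growth. Definition used: TGI = concentration required for complete inhibition of growth.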
# What was measured:
# Assay in all cases: growth of human tumour cells (NCI), 384-well format
# A498 renal = system: A498 renal
# TK-10 renal = system: TK-10 renal
# HOP-92 NSCLC = system: HOP-92 NSCLC
# NCI-H460 NSCLC = system: NCI-H460 NSCLC
# SNB-19 CNS = system: SNB-19 CNS
# UO-31 renal = system: UO-31 renal
# A549 NSCLC = system: A549 NSCLC
# HT29 colon = system: HT29 colon
# M14 melanoma = system: M14 melanoma
# DU-145 prostate = system: DU-145 prostate
# RXF 393 renal = system: RXF 393 renal
# IGROV1 ovarian = system: IGROV1 ovarian
# EKVX NSCLC = system: EKVX NSCLC
# SK-MEL-5 melanoma = system: SK-MEL-5 melanoma
# CAKI-1 renal = system: CAKI-1 renal
# OVCAR-3 ovarian = system: OVCAR-3 ovarian
# NCI-H522 lung = system: NCI-H522 lung
# 786-0 renal = system: 786-0 renal
# MALME-3M melanoma = system: MALME-3M melanoma
# NCI/ADR-RES ovarian = system: NCI/ADR-RES ovarian
# SW-620 colon = system: SW-620 colon
# LOX IMVI melanoma = system: LOX IMVI melanoma
# SK-OV-3 ovarian = system: SK-OV-3 ovarian
# PC-3 prostate = system: PC-3 prostate
# RPMI-8226 leukemia = system: RPMI-8226 leukemia
# NCI-H322M lung = system: NCI-H322M lung
# MOLT-4 leukemia = system: MOLT-4 leukemia
# UACC-257 melanoma = system: UACC-257 melanoma
# K-562 leukemia = system: K-562 leukemia
# SF-539 CNS = system: SF-539 CNS
# KM12 colon = system: KM12 colon
# ACHN renal = system: ACHN renal
# SR leukemia = system: SR leukemia
# COLO 205 colon = system: COLO 205 colon
# BT-549 breast = system: BT-549 breast
# U251 glioblastoma = system: U251 glioblastoma
# MCF7 breast = system: MCF7 breast
# MDA-MB-231 breast = system: MDA-MB-231 breast
# HOP-62 NSCLC = system: HOP-62 NSCLC
# SNB-75 CNS = system: SNB-75 CNS
# HL-60(TB) leukemia = system: HL-60(TB) leukemia
# MDA-MB-468 breast = system: MDA-MB-468 breast
# SF-268 CNS = system: SF-268 CNS
# SF-295 CNS = system: SF-295 CNS
# T-47D breast = system: T-47D breast
# CCRF-CEM leukemia = system: CCRF-CEM leukemia
# OVCAR-8 ovarian = system: OVCAR-8 ovarian
# NCI-H226 lung = system: NCI-H226 lung
# HCT-15 colon = system: HCT-15 colon
# MDA-MB-435 melanoma = system: MDA-MB-435 melanoma
# SK-MEL-28 melanoma = system: SK-MEL-28 melanoma
# UACC-62 melanoma = system: UACC-62 melanoma
# OVCAR-4 ovarian = system: OVCAR-4 ovarian
# SN12C renal = system: SN12C renal
# HCC-2998 colon = system: HCC-2998 colon
# NCI-H23 lung = system: NCI-H23 lung
# HS 578T breast = system: HS 578T breast
# HCT-116 colon = system: HCT-116 colon
smiles,measurement,setting,value
Cc1ccccc1C(C(=O)NC1CCCCC1)N(C(=O)CNc1ccc(C#N)cc1)c1cccc(F)c1 (stereo unspecified),GI50,A498 renal,6.17 µM
same,TGI,A498 renal,27.2 µM
same,GI50,TK-10 renal,19 µM
same,TGI,TK-10 renal,> 100 µM
same,GI50,HOP-92 NSCLC,3.45 µM
same,TGI,HOP-92 NSCLC,17 µM
same,GI50,NCI-H460 NSCLC,3.86 µM
same,TGI,NCI-H460 NSCLC,> 100 µM
same,GI50,SNB-19 CNS,3.16 µM
same,TGI,SNB-19 CNS,16.6 µM
same,GI50,UO-31 renal,57.3 µM
same,TGI,UO-31 renal,> 100 µM
same,GI50,A549 NSCLC,25 µM
same,TGI,A549 NSCLC,> 100 µM
same,GI50,HT29 colon,5.56 µM
same,TGI,HT29 colon,> 100 µM
same,GI50,M14 melanoma,2.56 µM
same,TGI,M14 melanoma,13.1 µM
same,GI50,DU-145 prostate,12.6 µM
same,TGI,DU-145 prostate,> 100 µM
same,GI50,RXF 393 renal,4.41 µM
same,TGI,RXF 393 renal,24.7 µM
same,GI50,IGROV1 ovarian,8.13 µM
same,TGI,IGROV1 ovarian,88.7 µM
same,GI50,EKVX NSCLC,11.6 µM
same,TGI,EKVX NSCLC,> 100 µM
same,GI50,SK-MEL-5 melanoma,3.12 µM
same,TGI,SK-MEL-5 melanoma,17.8 µM
same,GI50,CAKI-1 renal,4.93 µM
same,TGI,CAKI-1 renal,22.7 µM
same,GI50,OVCAR-3 ovarian,3.58 µM
same,TGI,OVCAR-3 ovarian,35.3 µM
same,GI50,NCI-H522 lung,7.86 µM
same,TGI,NCI-H522 lung,67.7 µM
same,GI50,786-0 renal,3.83 µM
same,TGI,786-0 renal,20.7 µM
same,GI50,MALME-3M melanoma,0.713 µM
same,TGI,MALME-3M melanoma,2.59 µM
same,GI50,NCI/ADR-RES ovarian,46.9 µM
same,TGI,NCI/ADR-RES ovarian,> 100 µM
same,GI50,SW-620 colon,3.4 µM
same,TGI,SW-620 colon,> 100 µM
same,GI50,LOX IMVI melanoma,24.7 µM
same,TGI,LOX IMVI melanoma,> 100 µM
same,GI50,SK-OV-3 ovarian,8.22 µM
same,TGI,SK-OV-3 ovarian,40.4 µM
same,GI50,PC-3 prostate,7.84 µM
same,TGI,PC-3 prostate,56.1 µM
same,GI50,RPMI-8226 leukemia,8.12 µM
same,TGI,RPMI-8226 leukemia,> 100 µM
same,GI50,NCI-H322M lung,13.4 µM
same,TGI,NCI-H322M lung,> 100 µM
same,GI50,MOLT-4 leukemia,> 100 µM
same,TGI,MOLT-4 leukemia,> 100 µM
same,GI50,UACC-257 melanoma,3.77 µM
same,TGI,UACC-257 melanoma,18.5 µM
same,GI50,K-562 leukemia,3.25 µM
same,TGI,K-562 leukemia,> 100 µM
same,GI50,SF-539 CNS,5.6 µM
same,TGI,SF-539 CNS,21.4 µM
same,GI50,KM12 colon,7.76 µM
same,TGI,KM12 colon,89.6 µM
same,GI50,ACHN renal,11.6 µM
same,TGI,ACHN renal,> 100 µM
same,GI50,SR leukemia,1.77 µM
same,TGI,SR leukemia,4.61 µM
same,GI50,COLO 205 colon,3.04 µM
same,TGI,COLO 205 colon,20.7 µM
same,GI50,BT-549 breast,7.62 µM
same,TGI,BT-549 breast,52.7 µM
same,GI50,U251 glioblastoma,15.7 µM
same,TGI,U251 glioblastoma,> 100 µM
same,GI50,MCF7 breast,14.6 µM
same,TGI,MCF7 breast,> 100 µM
same,GI50,MDA-MB-231 breast,5.23 µM
same,TGI,MDA-MB-231 breast,29.4 µM
same,GI50,HOP-62 NSCLC,6.88 µM
same,TGI,HOP-62 NSCLC,45.3 µM
same,GI50,SNB-75 CNS,2.61 µM
same,TGI,SNB-75 CNS,16.2 µM
same,GI50,HL-60(TB) leukemia,1.15 µM
same,TGI,HL-60(TB) leukemia,3.91 µM
same,GI50,MDA-MB-468 breast,51.7 µM
same,TGI,MDA-MB-468 breast,> 100 µM
same,GI50,SF-268 CNS,7.32 µM
same,TGI,SF-268 CNS,55.9 µM
same,GI50,SF-295 CNS,15 µM
same,TGI,SF-295 CNS,47.1 µM
same,GI50,T-47D breast,7.89 µM
same,TGI,T-47D breast,> 100 µM
same,GI50,CCRF-CEM leukemia,98.4 µM
same,TGI,CCRF-CEM leukemia,> 100 µM
same,GI50,OVCAR-8 ovarian,4.15 µM
same,TGI,OVCAR-8 ovarian,58.3 µM
same,GI50,NCI-H226 lung,4.84 µM
same,TGI,NCI-H226 lung,27.2 µM
same,GI50,HCT-15 colon,65.1 µM
same,TGI,HCT-15 colon,> 100 µM
same,GI50,MDA-MB-435 melanoma,8.14 µM
same,TGI,MDA-MB-435 melanoma,> 100 µM
same,GI50,SK-MEL-28 melanoma,2.49 µM
same,TGI,SK-MEL-28 melanoma,11.6 µM
same,GI50,UACC-62 melanoma,1.58 µM
same,TGI,UACC-62 melanoma,4.91 µM
same,GI50,OVCAR-4 ovarian,5.82 µM
same,TGI,OVCAR-4 ovarian,31.5 µM
same,GI50,SN12C renal,4.43 µM
same,TGI,SN12C renal,66.8 µM
same,GI50,HCC-2998 colon,1.48 µM
same,TGI,HCC-2998 colon,11.2 µM
same,GI50,NCI-H23 lung,4.65 µM
same,TGI,NCI-H23 lung,24.4 µM
same,GI50,HS 578T breast,3.36 µM
same,TGI,HS 578T breast,20.1 µM
same,GI50,HCT-116 colon,4.46 µM
same,TGI,HCT-116 colon,33.9 µM

# Source: PubChem BioAssay (NCI)
